# Results from patent US5550110A, “Endothelin Antagonists II” (Warner-Lambert Company, priority 1994, dated 1996).
# Peptide text beside a SMILES is read from it.
# Tests used:
# [1] = biological target: ETB (rabbit pulmonary artery) (Oryctolagus cuniculus, UniProt Q9N0W7)
# Description: (§1) In Vitro Antagonism of ET-1 Stimulated Vasoconstriction in the Rabbit Femoral Artery (ETA) and Sarafotoxin 6c Stimulated Vasoconstriction in the Rabbit Pulmonary Artery (ETB)
# (§2) Male New Zealand rabbits were killed by cervical dislocation and exsanguination. Femoral and pulmonary arteries were isolated, cleaned of connective tissue, and cut into 4-mm rings. The endothelium was denuded by placing the rings over hypodermic tubing (32 guage for femoral rings and 28 guage for pulmonary rings, Small Parts, Inc, Miami, Fla.) and gently rolling them. Denuded rings were mounted in 20 mL organ baths containing Krebs-bicarbonate buffer (composition in mM: NaCl, 118.2; NaHCO3, 24.8; KCl, 4.6; MgSO4 7.H2 O, 1.2; KH2 PO4, 1.2; CaCl2.2H2 O; Ca--Na2 EDTA, 0.026; dextrose, 10.0), that was maintained at 37° C. and gassed continuously with 5% CO2 in oxygen (pH 7.4). Resting tension was adjusted to 3.0 g for femoral and 4.0 g pulmonary arteries; the rings were left for 90 minutes to equilibrate.
# [2] = tested on: ETA (rabbit femoral artery); conditions: ET-1 as agonist, endothelium-denuded rings
# Description: as §1, §2
# [3] = tested on: CaCO-2 cells (human colon adenocarcinoma cell line); assay type: in vitro ADME
# Method: For experiments, the cells were counted, then diluted to 2.5×10^5 cells/mL for planting (400 μL per well) onto Snapwell culture membranes with 2.5 mL media in the lower chamber. Media in the […] was changed every 2 to 3 days. Cells used for this series of experiments were between passage 38 and 91. 2-[N-Morpholino]ethanesulfonic acid (MES)+25 mM glucose was used as incubation buffer for all the experiments and all incubation solutions were prepared to an osmotic pressure of 280 to 300 milliosmoles. The concentration of the endothelin antagonist being studied (for all experiments) was 100 μM and another endothelin antagonist with similar HPLC characteristics (retention time 2-3 minutes from the ET antagonist being studied, and similar chemical characteristics) was used at a concentration of 25 μM as an internal standard to compensate for any injection error. Prior to the start of the experiment, the transepithelial electrical resistance (TEER) was measured for each Snapwell (in media) at three points of the membrane. […] The membranes were washed by swirling in 0.9% normal saline and mounted in the pretreated diffusion chambers [0.1 mg/mL human serum albumin for 1 to 2 hours at 37° C. with O2 bubbling followed by air drying at 37° C. overnight, then with 4.5 to 5.0 mL dosing solution (MES+glucose+^14 C-PEG-4000 (5000 dpm/50 μL)+drug) for 5 minutes and 4.5 to 5.0 mL MES+glucose rinse just before the experiment.] The apical (donor) side was filled with 4.5 to 5.0 mL dosing solution, the basolateral (receiver) side with MES+glucose. Samples were removed from the donor and receiver compartments over the course of the experiment and analyzed for ^14 C-PEG 4000 (cell membrane integrity) and endothelin content.
# [4] = tested on: endothelin receptor, cultured rabbit renal artery vascular smooth muscle cells; assay: Inhibition of ET-1 stimulated arachidonic acid release (AAR-A); assay type: cell-based; conditions: ET-1 0.3 nM
# Method: In Vitro Inhibition of ET-1 Stimulated Arachidonic Acid Release in Cultured Rabbit Vascular Smooth Muscle Cells (AAR-A) or CHO Cells Expressing Rat Recombinant ETB Receptor (AAR-B) by Compounds of Formula I
# Antagonist activity is measured by the ability of added compounds to reduce endothelin-stimulated arachidonic acid release in cultured vascular smooth muscle cells as arachidonic acid release (AAR). [^3 H] Arachidonic Acid Loading Media (LM) is DME/F12+0.5% fetal calf serum (FCS)×0.25 mCi/mL [^3 H] arachidonic acid (Amersham). Confluent monolayers of cultured rabbit renal artery vascular smooth muscle cells (AAR-A) or CHO cells expressing rat recombinant ETB receptor (AAR-B) were incubated in 0.5 mL of the LM over 18 hours, at 37° C., in 5% CO2. The LM was aspirated and the cells were washed once with the assay buffer (Hank's balanced salt solution [BSS]+10 mM HEPES+fatty acid-free BSA (1 mg/mL)), and incubated for 5 minutes with 1 mL of the prewarmed assay buffer. This solution was aspirated, followed by an additional 1 mL of prewarmed assay buffer, and further incubated for another 5 minutes. A final 5-minute incubation was carried out in a similar manner. The same procedure was repeated with the inclusion of 10 μL of the test compound (1 nM to 1 μM) and 10 μL ET-1 (0.3 nM) and the incubation was extended for 30 minutes. This solution was then collected, […] of scintillation cocktail was added, and the amount of [^3 H] arachidonic acid was determined in a liquid scintillation counter.
# [5] = tested on: endothelin receptor (ETA), rabbit renal artery vascular smooth muscle cells; assay: Endothelin Receptor Binding Assay-A (ERBA-A), intact cell binding of [125I]-ET-1; conditions: [125I]-ET-1 25 pM
# Method: The compounds of Formula I are valuable antagonists of endothelin. […] Thus, the compounds of Formula I were tested for their ability to inhibit [^125 I]-ET-1([^125 I]-Endothelin-1) binding in a receptor assay according to the following procedures: Endothelin Receptor Binding Assay-A (ERBA-A) Intact Cell Binding of [^125 I]-ET-1 The cells used were rabbit renal artery vascular smooth muscle cells grown in a 48-well dish (1 cm^2) (confluent cells). The assay buffer was a medium 199 containing Hanks salts and 25 mM Hepes buffer (Gibco 380-2350AJ), supplemented with penicillin/streptomycin/fungizone (0.5%) and bovine serum albumin (1 mg/mL). Amersham radioiodinated endothelin-1 [^125 I]-ET-1 was used at final concentration of 20,000 cpm/0.25 mL (25 pM). […] Second, remove the assay buffers, place the dish on ice, and add 150 μL of cold assay buffer described above to each well. Third, add […] each of cold [^125 I]-ET-1 and competing ligand to the solution (at the same time if possible). Next, place dish in a 37° C. water bath for about 2 hours and gently agitate the dish every 15 minutes. Discard the radioactive incubation mixture in the sink and wash wells 3 times with 1 mL of cold phosphate buffered saline. Last, add […] of 0.25 molar sodium hydroxide, agitate for 1 hour on a rotator, and then transfer the sodium hydroxide extract to gamma counting tubes and count the radioactivity.
# Chain of ETB (rabbit pulmonary artery) (Q9N0W7 27-441): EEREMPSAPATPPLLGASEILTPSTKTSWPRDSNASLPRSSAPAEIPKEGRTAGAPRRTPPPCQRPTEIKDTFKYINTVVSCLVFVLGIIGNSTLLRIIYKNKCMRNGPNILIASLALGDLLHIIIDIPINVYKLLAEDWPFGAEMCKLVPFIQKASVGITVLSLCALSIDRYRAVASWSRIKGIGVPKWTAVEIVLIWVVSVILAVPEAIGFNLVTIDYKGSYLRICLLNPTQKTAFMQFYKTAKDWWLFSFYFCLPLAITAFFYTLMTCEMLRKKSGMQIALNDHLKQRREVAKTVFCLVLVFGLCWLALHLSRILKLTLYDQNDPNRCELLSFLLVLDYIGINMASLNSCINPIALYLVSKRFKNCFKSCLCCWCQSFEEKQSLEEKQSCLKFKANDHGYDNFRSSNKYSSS
SMILES,Kb [1],pA2 Femoral [2],absorption in the gut suggested by CaCO-2 values [3],IC50 [4],IC50 [5]
"CC[C@H](C)[C@H](NC(=O)[C@H](CC(=O)O)NC(=O)[C@H](CC(C)C)NC(=O)[C@H](NC(C)=O)C1c2ccccc2CCc2ccccc21)C(=O)N[C@H](C(=O)N[C@@H](Cc1c[nH]c2ccccc12)C(=O)O)[C@@H](C)CC [Example 1, Ac-D-Bhg-Leu-Asp-Ile-Ile-Trp] (HELM PEPTIDE1{[ac].[O=C([C@H](N[*:1])C1c2ccccc2CCc2ccccc21)[*:2]].L.D.I.I.W}$$$$V2.0)",0.0794 µM,6.8,5-10%,–,–
"CC[C@H](C)[C@H](NC(=O)[C@H](CC(=O)O)NC(=O)[C@H](CC(C)C)NC(=O)[C@H](NC(C)=O)C1c2ccccc2CCc2ccccc21)C(=O)N(C)[C@H](C(=O)N[C@@H](Cc1c[nH]c2ccccc12)C(=O)O)[C@@H](C)CC [Example 19, Ac-D-Bhg-Leu-Asp-Ile-N-MeIle-Trp] (HELM PEPTIDE1{[ac].[O=C([C@H](N[*:1])C1c2ccccc2CCc2ccccc21)[*:2]].L.D.I.[meI].W}$$$$V2.0)",0.251 µM,7.3,5-10%,0.0043 µM,0.0005 µM
